Results taken from patent publication US11752111B2, “Use of cannabidivarin in the treatment of autism spectrum disorder, associated disorders and schizophrenia” (GW Research Limited, priority 2016, dated 2023).
Entries after “also recorded” stand apart in the source; their conditions may differ. Like-named read-outs stand apart in the source and are kept apart here.

Assays:
[1] = system: VPA-exposed rats; test: Locomotor activity and repetitive behaviours (self-grooming), prenatal VPA model; assay type: in vivo, rat; conditions: VPA offspring
Procedure: Pregnant Sprague-Dawley rats (Charles River, Calco, Italy), received a single intraperitoneal injection of 500 mg/kg sodium valproate on the 12.5 day after conception, and control females were injected with physiological saline at the same time. Sodium valproate (Sigma Aldrich, Milan, IT) was dissolved in saline at a concentration of 250 mg/ml.
CBDV was dissolved in ethanol, cremophor and saline (1:1:18). Symptomatic treatment with CBDV at doses of 0.2, 2, 20, and 100 mg/kg/day i.p. was performed starting from PND 34 (early adolescence) till 56 (early adulthood), both in male and female offspring of dams injected with VPA 500 mg/kg (or vehicle) on day 12.5 after conception. At PND 56, a series of behavioural tests was performed in order to assess the effect of chronic CBDV on sociability, social novelty, short-term memory, locomotion and stereotyped/repetitive behaviours.
Locomotor activity and repetitive behaviours: Locomotor activity was recorded in an activity cage for 20 minutes with the aid of Anymaze program (Ugo Basile, Italy). In this period, repetitive behaviours (self-grooming and digging) were measured by an observer blind to the treatment group.

[2] = system: Fmr1 KO mice; test: Novel object recognition task in Fragile X model; assay type: in vivo, mouse
Procedure: Fmr1 KO mice and wild type mice were obtained and housed four per cage in a temperature of 21° C.±1° C. and humidity of 55%±10% controlled environment. Food and water were available ad libitum. All experiments were performed during the light phase of a 12 hour light/dark cycle (08:00 to 20:00). Animals were handled for one week before the start of experiments. All behavioural tests were performed by researchers blind to the different experimental groups.
On day one mice were habituated for 10 minutes to the empty V-maze in which the task was to be performed. On the second day the mice went back to the maze for 10 minutes which contained two identical objects at the end of each corridor in the V-maze.
The following day the mice were placed again in the same maze for a further 10 minutes but one of the familiar objects was replaced for a novel object. The total time spent exploring the novel and familiar object was recorded. A discrimination index was calculated as the difference between the time spent exploring the novel and familiar object divided by the total time exploring the two objects. A high discrimination index (0.3-0.5) is considered to reflect memory retention for the familiar object.
Adult mice (10-15 weeks old) were treated either acutely with one dose of CBDV on […] or were treated once daily with CBDV for 7 consecutive days. Mice were evaluated in the novel object recognition task after the first and sixth day of CBDV administration. Doses of CBDV used were 2, 10, 20, 100 and 200 mg/kg.

[3] = system: Fmr1 KO mice; test: Audiogenic seizure susceptibility, Fmr1 KO (FXS) mice; assay type: in vivo, mouse; conditions: for audiogenic seizures: FXS mice PND21
Procedure: (§1) This trait was evaluated in PND21 mice after acute administration of the compounds or its vehicle, 30 min before starting the procedure. To measure audiogenic seizure sensitivity mice were placed individually into a novel environment, a glass cylinder (40 cm high, 16 cm diameter) and allowed to explore for 1 min. Next, a bell (100 dB) was rung for 30 sec and seizure activity scored according to the following scale: no response, 0; wild running, 1; clonic seizure, 2; tonic seizure, 3; status epilepticus/respiratory arrest/death, 4.
(§2) On postnatal day 21 (PND21) WT and Fmr1 KO mice were injected with CBDV (2, 10, 20 or 100 mg/kg) or vehicle, 30 min before exposure to a bell ring (100 dB). Mice exposed to this noise for 30 sec ceased from their normal exploratory behaviour and reacted with gradually to wild-running, clonic seizure, tonic seizure or death. The maximum response was annotated for each mouse as detailed in Table 2 below. A score was calculated according to the severity of the symptoms as explained in the Methods section.

[4] = system: WT mice; test: Audiogenic seizure susceptibility, WT mice; assay type: in vivo, mouse; conditions: WT PND21
Procedure: as §1, §2

[5] = system: Ube3am-/p+ (AS) mice; test: Clasping test in Angelman syndrome model; assay type: in vivo, mouse; conditions: CBDV 20 mg/kg i.p. chronic treatment (30 days); AS mice at 10 weeks of age vs AS vehicle
Procedure: (§3) Heterozygous mice with maternal deficiency of Ube3A (Ube3am−/p+) and wild type (Ube3am+/p+) were purchased from The Jackson Laboratory (Jackson code: B6.129S7-Ube3a tm1Alb/J) and maintained in a C57BL/6 background.
Drugs were dissolved in 1:1:18 ethanol:cremophor:0.9% saline, for intraperitoneal (i.p.) administration. […] CBDV was administered at 20 mg/kg.
Clasping: The clasping test assesses ataxia in mice. Mice were suspended by the base of the tail and their behaviours were recorded for 30 seconds. The time for which the mice clasped their hind limbs was recorded. The time was then scored as follows: 4, 15-30 s, 3, 10-15 s, 2, 5-10 s, 1, 0-5 s and 0,0 s

[6] = system: Ube3am-/p+ (AS) mice; test: Tail suspension test in Angelman syndrome model; assay type: in vivo, mouse; conditions: CBDV 20 mg/kg i.p.; AS mice vs AS vehicle
Procedure: as §3
Drugs were dissolved in 1:1:18 ethanol:cremophor:0.9% saline, for intraperitoneal (i.p.) administration. Drug treatment was performed daily for 35 days. CBDV was administered at 20 mg/kg.
Tail suspension: The tail suspension test assesses depressive-like behaviour in mice. Mice were individually suspended by the tail on a horizontal bar (50 cm from floor) using adhesive tape placed approximately 4 cm from the tip of the tail. The duration of immobility was recorded in seconds over a period of 6 minutes by a time recorder. Immobility time was defined as the absence of escape-oriented behaviour.

[7] = system: animal models of seizure; conditions: in vivo; cited from earlier work
[8] = FXS (Fmr1 KO) PND21, CBDV 2 mg/kg acute, n = 5
[9] = FXS (Fmr1 KO) PND21, CBDV 10 mg/kg acute, n = 5
[10] = FXS (Fmr1 KO) PND21, CBDV 20 mg/kg acute, n = 5
[11] = FXS (Fmr1 KO) PND21, CBDV 100 mg/kg acute, n = 5

C=C(C)[C@@H]1CCC(C)=C[C@H]1c1c(O)cc(CCC)cc1O [CBDV, Cannabidivarin]
repetitive behaviours (compulsive self-grooming) (FIG. 2A) ([1]; 20 mg/kg in males): significantly normalize
locomotor activity (FIG. 2B) ([1]; 2, 20 and 100 mg/kg in males): normalize
repetitive behaviours (compulsive self-grooming) (FIG. 2A) ([1]; 2 and 100 mg/kg in females): significantly normalize
discrimination index (FIG. 3A) [2]: no effect
increase of discrimination index over vehicle treated mice (FIG. 3A) ([2]; acute treatment, 2 mg/kg, knockout mice): not significant
discrimination index vs vehicle treated knockout mice (FIG. 3B) ([2]; chronic treatment once daily for 7 days, 20 and 100 mg/kg, knockout mice): statistically significant increase
maximum response: No response (number of mice) [3]: 2
maximum response: Clonic seizure (number of mice) [3, 8]: 0
maximum response: Death (number of mice) [3, 8]: 0
maximum response: Tonic seizure (number of mice) [3, 8]: 2
maximum response: Wild running (number of mice) [3, 8]: 1
maximum response: Clonic seizure (number of mice) [3, 9]: 0
maximum response: Death (number of mice) [3, 9]: 0
maximum response: No response (number of mice) [3, 9]: 0
maximum response: Tonic seizure (number of mice) [3, 9]: 2
maximum response: Wild running (number of mice) [3, 9]: 3
maximum response: Clonic seizure (number of mice) [3, 10]: 0
maximum response: Death (number of mice) [3, 10]: 0
maximum response: No response (number of mice) [3, 10]: 2
maximum response: Tonic seizure (number of mice) [3, 10]: 2
maximum response: Wild running (number of mice) [3, 10]: 1
maximum response: Clonic seizure (number of mice) [3, 11]: 0
maximum response: Death (number of mice) [3, 11]: 0
maximum response: No response (number of mice) [3, 11]: 5
maximum response: Tonic seizure (number of mice) [3, 11]: 0
maximum response: Wild running (number of mice) [3, 11]: 0
audiogenic seizures ([3]; acute 100 mg/kg): remained seizure free; also recorded: completely eliminate the seizures
audiogenic seizures ([3]; acute lower doses (2, 10, 20 mg/kg)): experienced seizures of varying severity
maximum response: Clonic seizure (number of mice) ([4]; CBDV 2 mg/kg acute, n = 6): 0
maximum response: Death (number of mice) ([4]; CBDV 2 mg/kg acute, n = 6): 0
maximum response: Tonic seizure (number of mice) ([4]; CBDV 2 mg/kg acute, n = 6): 0
maximum response: Wild running (number of mice) ([4]; CBDV 2 mg/kg acute, n = 6): 0
maximum response: Clonic seizure (number of mice) ([4]; CBDV 10 mg/kg acute, n = 5): 0
maximum response: Death (number of mice) ([4]; CBDV 10 mg/kg acute, n = 5): 0
maximum response: Tonic seizure (number of mice) ([4]; CBDV 10 mg/kg acute, n = 5): 0
maximum response: Wild running (number of mice) ([4]; CBDV 10 mg/kg acute, n = 5): 0
maximum response: Clonic seizure (number of mice) ([4]; CBDV 20 mg/kg acute, n = 6): 0
maximum response: Death (number of mice) ([4]; CBDV 20 mg/kg acute, n = 6): 0
maximum response: Tonic seizure (number of mice) ([4]; CBDV 20 mg/kg acute, n = 6): 0
maximum response: Wild running (number of mice) ([4]; CBDV 20 mg/kg acute, n = 6): 1
maximum response: Clonic seizure (number of mice) ([4]; CBDV 100 mg/kg acute, n = 6): 0
maximum response: Death (number of mice) ([4]; CBDV 100 mg/kg acute, n = 6): 0
maximum response: Tonic seizure (number of mice) ([4]; CBDV 100 mg/kg acute, n = 6): 0
maximum response: Wild running (number of mice) ([4]; CBDV 100 mg/kg acute, n = 6): 0
clasping duration (FIG. 11) [5]: significantly reduced clasping duration
duration of immobility time, tail suspension (FIG. 14) [6]: significantly reduced the duration of immobility time
efficacy in animal models of seizure [7]: effective
